Experimental findings from publication PMC10406613, “Endocytic myosin-1 is a force-insensitive, power-generating motor” (The Journal of Cell Biology, 2023) are described below.

The target in assay [1] is T1, phosphorylated Myo5 (actoMyo5) (Saccharomyces cerevisiae, UniProt Q04439). As to the kind of experiment: stopped-flow light scattering, ADP release from ADP-saturated actoMyo5 mixed with ATP. Type of assay: binding. The arrangement: motor domain plus both IQ motifs, truncated at Gly763, C-terminal AviTag-TEV-His9 kept; co-expressed with She4 in S. cerevisiae D1074; phosphorylated at TEDS site S357 by Pak1; Cmd1 light chain in excess; with Calmodulin; Actin, alpha skeletal muscle (rabbit, Oryctolagus cuniculus). Particulars: 100 µM ADP preincubated with 200 nM actoMyo5, then 2.5 mM ATP, KMg25 buffer pH 7, 20°C, phosphorylated at S357. An excerpt: stopped-flow light scattering, ADP release from ADP-saturated actoMyo5 mixed with ATP on phosphorylated Myo5 (actoMyo5)

The target of assay [2] is T2, unphosphorylated Myo5 (actoMyo5) (Saccharomyces cerevisiae, UniProt Q04439). The description is as above. In kind it is binding. The arrangement: motor domain plus both IQ motifs, truncated at Gly763, C-terminal AviTag-TEV-His9 kept; co-expressed with She4 in S. cerevisiae D1074; lambda phosphatase-treated (unphosphorylated at TEDS site S357); Cmd1 light chain in excess; with Calmodulin; Actin, alpha skeletal muscle (rabbit, Oryctolagus cuniculus). Particulars: ADP dissociation rate constant, 100 µM ADP preincubated with 200 nM actoMyo5, then 2.5 mM ATP, KMg25 buffer pH 7, 20°C. An excerpt: stopped-flow light scattering, ADP release from ADP-saturated actoMyo5 mixed with ATP on unphosphorylated Myo5 (actoMyo5)

For assay [3], the target named is T2, unphosphorylated Myo5 (actoMyo5). As to the kind of experiment: biochemical. The text has this: stopped-flow light scattering, ATP-induced dissociation of actoMyo5, hyperbolic fit on unphosphorylated Myo5 (actoMyo5)
Assay [4] addresses T1, phosphorylated Myo5 (actoMyo5). The following applies: apparent second-order rate constant of ATP binding to nucleotide-free actoMyo5 (actin-bound); MgATP, KMg25 buffer pH 7, 20°C; phosphorylated at S357. An excerpt: stopped-flow light scattering, ATP-induced dissociation of actoMyo5, linear fit on phosphorylated Myo5 (actoMyo5)

T1 sequence (Q04439 whole entry, looked up, the tested form may be a part): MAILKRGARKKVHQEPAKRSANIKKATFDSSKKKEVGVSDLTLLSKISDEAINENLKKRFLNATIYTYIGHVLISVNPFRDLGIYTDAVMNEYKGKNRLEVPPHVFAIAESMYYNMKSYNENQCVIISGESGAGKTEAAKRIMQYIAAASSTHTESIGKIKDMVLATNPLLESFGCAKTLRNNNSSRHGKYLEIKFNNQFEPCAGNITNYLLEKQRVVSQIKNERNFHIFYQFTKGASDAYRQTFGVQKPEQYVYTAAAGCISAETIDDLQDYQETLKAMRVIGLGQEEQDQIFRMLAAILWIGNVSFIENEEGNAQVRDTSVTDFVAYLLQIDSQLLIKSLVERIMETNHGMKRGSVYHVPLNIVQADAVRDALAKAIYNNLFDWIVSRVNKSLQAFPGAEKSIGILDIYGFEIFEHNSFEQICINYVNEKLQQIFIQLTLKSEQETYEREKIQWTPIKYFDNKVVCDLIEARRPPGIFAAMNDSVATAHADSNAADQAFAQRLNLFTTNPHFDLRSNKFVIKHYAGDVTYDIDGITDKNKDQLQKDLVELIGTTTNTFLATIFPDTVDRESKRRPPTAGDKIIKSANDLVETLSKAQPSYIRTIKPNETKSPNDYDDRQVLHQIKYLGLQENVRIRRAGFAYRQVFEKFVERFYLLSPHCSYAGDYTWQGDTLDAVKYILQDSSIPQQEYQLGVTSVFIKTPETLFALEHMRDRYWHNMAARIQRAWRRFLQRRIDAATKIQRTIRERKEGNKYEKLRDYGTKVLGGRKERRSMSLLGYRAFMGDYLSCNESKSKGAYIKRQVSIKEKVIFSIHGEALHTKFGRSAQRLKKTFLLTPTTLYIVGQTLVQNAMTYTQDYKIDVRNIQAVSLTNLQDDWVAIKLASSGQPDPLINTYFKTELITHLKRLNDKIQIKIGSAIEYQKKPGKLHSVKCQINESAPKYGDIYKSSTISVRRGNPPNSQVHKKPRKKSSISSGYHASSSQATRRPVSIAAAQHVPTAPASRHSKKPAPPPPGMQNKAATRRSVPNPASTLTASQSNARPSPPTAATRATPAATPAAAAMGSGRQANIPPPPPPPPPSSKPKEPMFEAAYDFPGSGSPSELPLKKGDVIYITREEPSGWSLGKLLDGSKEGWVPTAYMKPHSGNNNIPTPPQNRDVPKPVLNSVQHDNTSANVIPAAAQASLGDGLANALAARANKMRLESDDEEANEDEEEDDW
T2 sequence (Q04439 whole entry, looked up, the tested form may be a part): as above

Take `Nc1ncnc2c1ncn2[C@@H]1O[C@H](COP(=O)(O)OP(=O)(O)O)[C@@H](O)[C@H]1O` [ADP]: in assay [1], the “ADP dissociation rate constant” value turned out to be 74 ± 2.0 s⁻¹. For the same compound, the “ADP release rate constant” value in assay [2] is listed as 107 (±5.9) s^−1.

For the compound `Nc1ncnc2c1ncn2[C@@H]1O[C@H](COP(=O)(O)OP(=O)(O)OP(=O)(O)O)[C@@H](O)[C@H]1O` [ATP], the Kd in assay [3] was 167 µM. Moreover, the “Phosphorylated Myo5” value in assay [4] is 0.39 (±0.017) µM^−1 s^−1.

For orientation: Kd means the equilibrium constant for the complex coming apart. The low end stands for higher affinity, the high end for lower affinity.
